From US12077503B2, “Substituted cyclic amides and their use as herbicides” (FMC CORPORATION, priority 2015, dated 2024)

Experiments:
Type in all cases: in vivo
[1] = tested on: barnyardgrass (Echinochloa crus-galli); assay: Test G Pre-Emergence Protocol; settings: Echinochloa crus-galli, pre-emergence, 312 h, evaluated after 13 days; for pest or weed control at 15.625 g/ha: 15.625 g ai/ha; for pest or weed control at 15.625 g/ha / pest or weed control at 250 g/ha: read-out: Barnyardgrass damage rating (100=total damage to plant; 0=no damage to plant); for pest or weed control at 62.5 g/ha: 62.5 g ai/ha, 100=total damage to plant, 0=no damage to plant, read-out: Barnyardgrass damage rating; for pest or weed control at 250 g/ha: 250 g ai/ha
Outline: (§1)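 Scores are visual damage ratings from 0 (no damage) to 100 (total plant kill), taken 13 days after treatment. Compound was sprayed one day post-sowing at 15.625, 62.5 or 250 g/ha in 50:50 acetone/water with 0.5% Tween 20.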

corn (Zea mays) [2] = assay: Test G Pre-Emergence Protocol; settings: Zea mays, pre-emergence, 312 h, evaluated after 13 days; for plant injury at 15.625 g/ha: 15.625 g ai/ha; for plant injury at 15.625 g/ha / plant injury at 250 g/ha: read-out: Corn damage rating (100=total damage to plant; 0=no damage to plant); for plant injury at 62.5 g/ha: 62.5 g ai/ha, 100=total damage to plant, 0=no damage to plant, read-out: Corn damage rating; for plant injury at 250 g/ha: 250 g ai/ha
Outline: as §1

[3] = tested on: giant foxtail (Setaria faberi); assay: Test G Pre-Emergence Protocol; settings: Setaria faberi, pre-emergence, 312 h, evaluated after 13 days; for pest or weed control at 15.625 g/ha: 15.625 g ai/ha; for pest or weed control at 15.625 g/ha / pest or weed control at 250 g/ha: read-out: Foxtail, Giant damage rating (100=total damage to plant; 0=no damage to plant); for pest or weed control at 62.5 g/ha: 62.5 g ai/ha, 100=total damage to plant, 0=no damage to plant, read-out: Foxtail, Giant damage rating; for pest or weed control at 250 g/ha: 250 g ai/ha
Outline: as §1

[4] = tested on: ivy-leaved morning glory (Ipomoea hederacea); assay: Test G Pre-Emergence Protocol; settings: Ipomoea, pre-emergence, 312 h, evaluated after 13 days; for pest or weed control at 15.625 g/ha: 15.625 g ai/ha; for pest or weed control at 15.625 g/ha / pest or weed control at 250 g/ha: read-out: Morningglory, Ivy-leaved damage rating (100=total damage to plant; 0=no damage to plant); for pest or weed control at 62.5 g/ha: 62.5 g ai/ha, 100=total damage to plant, 0=no damage to plant, read-out: Morningglory, Ivy-leaved damage rating; for pest or weed control at 250 g/ha: 250 g ai/ha
Outline: as §1

[5] = tested on: redroot pigweed (Amaranthus retroflexus); assay: Test G Pre-Emergence Protocol; settings: Amaranthus retroflexus, pre-emergence, 312 h, evaluated after 13 days; for pest or weed control at 15.625 g/ha: 15.625 g ai/ha; for pest or weed control at 15.625 g/ha / pest or weed control at 250 g/ha: read-out: Pigweed, Redroot damage rating (100=total damage to plant; 0=no damage to plant); for pest or weed control at 62.5 g/ha: 62.5 g ai/ha, 100=total damage to plant, 0=no damage to plant, read-out: Pigweed, Redroot damage rating; for pest or weed control at 250 g/ha: 250 g ai/ha
Outline: as §1

[6] = tested on: velvetleaf (Abutilon theophrasti); assay: Test G Pre-Emergence Protocol; settings: Abutilon theophrasti, pre-emergence, 312 h, evaluated after 13 days; for pest or weed control at 15.625 g/ha: 15.625 g ai/ha; for pest or weed control at 15.625 g/ha / pest or weed control at 250 g/ha: read-out: Velvetleaf damage rating (100=total damage to plant; 0=no damage to plant); for pest or weed control at 62.5 g/ha: 62.5 g ai/ha, 100=total damage to plant, 0=no damage to plant, read-out: Velvetleaf damage rating; for pest or weed control at 250 g/ha: 250 g ai/ha
Outline: as §1

[7] = tested on: barnyardgrass (Echinochloa crus-galli); assay: Test G Post-Emergence Protocol; settings: Echinochloa crus-galli, post-emergence, 312 h, read-out: Barnyardgrass damage rating; for pest or weed control at 15.625 g/ha: 15.625 g ai/ha, evaluated after 13 days (100=total damage to plant; 0=no damage to plant); for pest or weed control at 62.5 g/ha: 62.5 g ai/ha; for pest or weed control at 62.5 g/ha / pest or weed control at 250 g/ha: evaluated after 13 days, 100=total damage to plant, 0=no damage to plant; for pest or weed control at 250 g/ha: 250 g ai/ha
Outline: (§2)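 Foliar application was made 8 days after sowing, using an aqueous spray of the active in acetone/water (50:50) with 0.5% Tween 20, at doses of 15.625, 62.5 or 250 g/ha. Injury was assessed 13 days later, where 100 meant the plant was fully damaged.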

corn (Zea mays) [8] = assay: Test G Post-Emergence Protocol; settings: Zea mays, post-emergence, 312 h, read-out: Corn damage rating; for plant injury at 15.625 g/ha: 15.625 g ai/ha, evaluated after 13 days (100=total damage to plant; 0=no damage to plant); for plant injury at 62.5 g/ha: 62.5 g ai/ha; for plant injury at 62.5 g/ha / plant injury at 250 g/ha: evaluated after 13 days, 100=total damage to plant, 0=no damage to plant; for plant injury at 250 g/ha: 250 g ai/ha
Outline: as §2

[9] = tested on: giant foxtail (Setaria faberi); assay: Test G Post-Emergence Protocol; settings: Setaria faberi, post-emergence, 312 h, read-out: Foxtail, Giant damage rating; for pest or weed control at 15.625 g/ha: 15.625 g ai/ha, evaluated after 13 days (100=total damage to plant; 0=no damage to plant); for pest or weed control at 62.5 g/ha: 62.5 g ai/ha; for pest or weed control at 62.5 g/ha / pest or weed control at 250 g/ha: evaluated after 13 days, 100=total damage to plant, 0=no damage to plant; for pest or weed control at 250 g/ha: 250 g ai/ha
Outline: as §2

[10] = tested on: ivy-leaved morning glory (Ipomoea hederacea); assay: Test G Post-Emergence Protocol; settings: Ipomoea, post-emergence, 312 h, read-out: Morningglory, Ivy-leaved damage rating; for pest or weed control at 15.625 g/ha: 15.625 g ai/ha, evaluated after 13 days (100=total damage to plant; 0=no damage to plant); for pest or weed control at 62.5 g/ha: 62.5 g ai/ha; for pest or weed control at 62.5 g/ha / pest or weed control at 250 g/ha: evaluated after 13 days, 100=total damage to plant, 0=no damage to plant; for pest or weed control at 250 g/ha: 250 g ai/ha
Outline: as §2

[11] = tested on: redroot pigweed (Amaranthus retroflexus); assay: Test G Post-Emergence Protocol; settings: Amaranthus retroflexus, post-emergence, 312 h, read-out: Pigweed, Redroot damage rating; for pest or weed control at 15.625 g/ha: 15.625 g ai/ha, evaluated after 13 days (100=total damage to plant; 0=no damage to plant); for pest or weed control at 62.5 g/ha: 62.5 g ai/ha; for pest or weed control at 62.5 g/ha / pest or weed control at 250 g/ha: evaluated after 13 days, 100=total damage to plant, 0=no damage to plant; for pest or weed control at 250 g/ha: 250 g ai/ha
Outline: as §2

[12] = tested on: velvetleaf (Abutilon theophrasti); assay: Test G Post-Emergence Protocol; settings: Abutilon theophrasti, post-emergence, 312 h, read-out: Velvetleaf damage rating; for pest or weed control at 15.625 g/ha: 15.625 g ai/ha, evaluated after 13 days (100=total damage to plant; 0=no damage to plant); for pest or weed control at 62.5 g/ha: 62.5 g ai/ha; for pest or weed control at 62.5 g/ha / pest or weed control at 250 g/ha: evaluated after 13 days, 100=total damage to plant, 0=no damage to plant; for pest or weed control at 250 g/ha: 250 g ai/ha
Outline: as §2

SMILES | pest or weed control at 15.625 g/ha [1] | pest or weed control at 62.5 g/ha [1] | pest or weed control at 250 g/ha [1] | plant injury at 15.625 g/ha (corn (Zea mays) [2]) | plant injury at 62.5 g/ha (corn (Zea mays) [2]) | plant injury at 250 g/ha (corn (Zea mays) [2]) | pest or weed control at 15.625 g/ha [3] | pest or weed control at 62.5 g/ha [3] | pest or weed control at 250 g/ha [3] | pest or weed control at 15.625 g/ha [4] | pest or weed control at 62.5 g/ha [4] | pest or weed control at 250 g/ha [4] | pest or weed control at 15.625 g/ha [5] | pest or weed control at 62.5 g/ha [5] | pest or weed control at 250 g/ha [5] | pest or weed control at 15.625 g/ha [6] | pest or weed control at 62.5 g/ha [6] | pest or weed control at 250 g/ha [6] | pest or weed control at 15.625 g/ha [7] | pest or weed control at 62.5 g/ha [7] | further results
CN1C[C@H](c2ccc(C(F)(F)F)cc2)[C@@H](C(=O)Nc2cnccc2S(C)(=O)=O)C1=O (racemic) [Compound 1746] | 0% | 0% | 50% | 0% | 0% | 0% | 0% | 20% | 70% | 0% | 0% | 10% | 0% | 0% | 20% | 0% | 0% | 10% | 0% | 0% | pest or weed control at 250 g/ha [7]: 40%; plant injury at 15.625 g/ha (corn (Zea mays) [8]): 0%; plant injury at 62.5 g/ha (corn (Zea mays) [8]): 0%; plant injury at 250 g/ha (corn (Zea mays) [8]): 10%; pest or weed control at 15.625 g/ha [9]: 0%; pest or weed control at 62.5 g/ha [9]: 10%; pest or weed control at 250 g/ha [9]: 70%; pest or weed control at 15.625 g/ha [10]: 0%; pest or weed control at 62.5 g/ha [10]: 10%; pest or weed control at 250 g/ha [10]: 60%; pest or weed control at 15.625 g/ha [11]: 0%; pest or weed control at 62.5 g/ha [11]: 20%; pest or weed control at 250 g/ha [11]: 20%; pest or weed control at 15.625 g/ha [12]: 0%; pest or weed control at 62.5 g/ha [12]: 0%; pest or weed control at 250 g/ha [12]: 10%
CCOc1cc(C)cc(C2CN(C)C(=O)C2C(=O)Nc2cccc(F)c2F)c1 (stereo not drawn) [Compound 1692] | 20% | 70% | 80% | 0% | 60% | 80% | 60% | 80% | 90% | 0% | 0% | 30% | 0% | 10% | 10% | 0% | 0% | 20% | 40% | 70% | pest or weed control at 250 g/ha [7]: 80%; plant injury at 15.625 g/ha (corn (Zea mays) [8]): 20%; plant injury at 62.5 g/ha (corn (Zea mays) [8]): 50%; plant injury at 250 g/ha (corn (Zea mays) [8]): 80%; pest or weed control at 15.625 g/ha [9]: 60%; pest or weed control at 62.5 g/ha [9]: 80%; pest or weed control at 250 g/ha [9]: 80%; pest or weed control at 15.625 g/ha [10]: 40%; pest or weed control at 62.5 g/ha [10]: 30%; pest or weed control at 250 g/ha [10]: 70%; pest or weed control at 15.625 g/ha [11]: 0%; pest or weed control at 62.5 g/ha [11]: 40%; pest or weed control at 250 g/ha [11]: 40%; pest or weed control at 15.625 g/ha [12]: 0%; pest or weed control at 62.5 g/ha [12]: 20%; pest or weed control at 250 g/ha [12]: 30%
